Reference: US20090148535A1, “METHOD FOR TREATING CANCER USING INTERFERENCE RNA” (MINERVA BIOTECHNOLOGIES CORPORATION, priority 2007, published 2009)

What was measured:
Assay type in all cases: cell-based
[1] = test system: BTRes1 cells; test: Cell death of BTRes1 cells with chemotherapeutic agents with or without Anti-MUC1* Fab (Trypan Blue exclusion); details: for resistance of BTRes1 and restored killing effect with Anti-MUC1* Fab: 10 ug/ml Anti-MUC1* Fab
Procedure: (§1) BT474, BTRes1 and BTRes2 cells were plated at 10,000 cells/well in 96 well plates, 4 wells/condition. The following day, Cyclophosphamide, Taxol, or Doxorubicin were added in varying concentrations, alone, or in the presence of 10 ug/ml Anti-MUC1* Fab or 10 ug/ml Control Fab. Cells were left untreated, or treated with either Fab alone as controls. Two days later, cells were resuspended in 50 ul trypsin, and counted in the presence of trypan blue. Percent cell death was calculated as percent trypan blue uptake.

[2] = test system: BT474 cells; test: Cell death of BT474 cells with chemotherapeutic agents (Trypan Blue exclusion); details: 10 nM Taxol, two days post-treatment
Procedure: as §1

[3] = test system: BTRes1 cells; test: Growth of siRNA-transfected BTRes1 cells in the presence of HERCEPTIN; details: HERCEPTIN 0-1 ug/ml, cell counts three days post-treatment
Procedure: Percent Normalized Growth was then calculated: Percent Normalized Growth=[(Day 3 cell counts with Antibody Added )−(Zero-day cell counts)]/[(Day 3 Cell counts without antibody added)−(Zero-day cell counts)]×100%
(§2) BT474 cells were transfected in triplicate with control siRNA (Santa Cruz Biotechnologies; sc-37007), and BTRes1 cells were transfected in triplicate with control or MUC1-specific siRNA (Santa Cruz Biotechnologies sc-35985). One microliter of 10 uM siRNA was added to 100 ul of OptiMEM medium (Invitrogen 22600134). Six microliters of HiPerfect reagent (Qiagen 301704) were then added to each tube. After vortexing, tubes were incubated at room temperature for 20 minutes. Meanwhile, cells were trypsinized, pelleted and resuspended in fresh RPMI without HERCEPTIN. 5×10^5 cells in 2.3 ml RPMI were combined with the OptiMEM with siRNA/HiPerfect complexes and added to a well of a 6 well plate. Two days later, cells were re-transfected by the same method, and plated in 96 well plates, at 10,000 cells/well, five wells/condition. Leftover cells were plated in six well plates. […] The following day, cells plated in 6 well plates were harvested and pelleted for Western analysis to evaluate siRNA efficacy. Three days later, cells were counted, and Percent Normalized Growth was calculated.

[4] = test system: MUC1*; test: Western blot of MUC1* after siRNA transfection; details: Western Blot after transient siRNA transfection
Procedure: as §2

Molecule: COc1cccc2c1C(=O)c1c(O)c3c(c(O)c1C2=O)C[C@@](O)(C(=O)CO)C[C@@H]3O[C@H]1C[C@H](N)[C@H](O)[C@H](C)O1 [Doxorubicin]
- resistance of BTRes1 and restored killing effect with Anti-MUC1* Fab ([1]; 1 uM drug): also observed

Molecule: CC(=O)O[C@H]1C(=O)[C@@]2(C)[C@H]([C@H](OC(=O)c3ccccc3)[C@]3(O)C[C@H](OC(=O)[C@H](O)[C@@H](NC(=O)c4ccccc4)c4ccccc4)C(C)=C1C3(C)C)[C@]1(OC(C)=O)CO[C@@H]1C[C@@H]2O [Taxol]
- cell killing [2]: effectively killed
- cell killing ([1]; BTRes1, 10 nM Taxol alone, two days, compared to untreated cells): essentially unaffected
- killing effect with Anti-MUC1* Fab ([1]; BTRes1, 10 nM Taxol and 10 ug/ml Anti-MUC1* Fab): restored

Molecule: O=P1(N(CCCl)CCCl)NCCCO1 (stereo not shown) [Cyclophospharnide, Cyclophosphamide]
- resistance of BTRes1 and restored killing effect with Anti-MUC1* Fab ([1]; 10 uM drug): also observed

Molecule: MUC1 siRNA: MUC1-specific siRNA (Santa Cruz Biotechnologies sc-35985) (GCAGCCTCTCGATATAACCATCTCGAGGGGTTATATCGAGAGGCTGC; expressed or natural sequence)
- growth in the presence of HERCEPTIN of cells transfected with the siRNA [3]: reduced
- MUC1* level [4]: Down regulation
